Measured values as given in ChEMBL document CHEMBL1135303, “Design and synthesis of aminophenol-based factor Xa inhibitors” (Bioorg Med Chem Lett, 2002).

What was measured:
Coagulation factor X = Coagulation factor X (Homo sapiens, UniProt P00742); experiment: Competitive inhibition of coagulation factor Xa
Serine protease 1 = target: T1, Serine protease 1 (Bos taurus, UniProt P00760); experiment: Competitive inhibition of trypsin
T1 sequence (P00760 whole entry): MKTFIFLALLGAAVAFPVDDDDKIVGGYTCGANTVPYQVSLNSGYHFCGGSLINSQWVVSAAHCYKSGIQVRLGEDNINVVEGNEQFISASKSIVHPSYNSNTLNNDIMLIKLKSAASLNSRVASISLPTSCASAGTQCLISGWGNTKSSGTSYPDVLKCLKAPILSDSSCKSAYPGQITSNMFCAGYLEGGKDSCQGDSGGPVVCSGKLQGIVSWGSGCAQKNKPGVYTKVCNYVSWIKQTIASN

Prothrombin [1] = target: T2, Prothrombin (Homo sapiens, UniProt P00734); experiment: Competitive inhibition of coagulation factor IIa
[2] = target: Serine protease 1 (Homo sapiens) (UniProt P07477); experiment: The selectivity ratio for Trypsin and Coagulation factor Xa was determined
Prothrombin [3] = target: T2, Prothrombin; experiment: Concentration required for twofold increase in thrombin clotting time in human plasma; type: functional, cell-free
Prothrombin [4] = target: T2, Prothrombin; experiment: Concentration required to double the prothrombin based clotting time in human plasma; type: functional, cell-free

Ki (Coagulation factor X)	Ki (Serine protease 1)	Ki (Prothrombin [1])	Ratio [2]	Concentration (Prothrombin [3])	Concentration (Prothrombin [4])	Compound
0.27 nM	27 nM	2900 nM	–	–	–	CC(=N)N1CCC(Oc2ccc(NC/C=C/c3cccc(C(=N)N)c3)cc2[N+](=O)[O-])CC1
0.28 nM	765 nM	> 5000 nM	–	–	–	CN1CCC(Oc2ccc(N(C/C=C/c3cc(C(=N)N)ccc3O)C(=O)CCC(=O)O)cc2C(F)(F)F)CC1
0.17 nM	42 nM	400 nM	–	–	–	CC(=N)N1CCC(Oc2ccc(NCc3cccc(-c4cccc(C(=N)N)c4)c3)cc2[N+](=O)[O-])CC1
0.07 nM	230 nM	2280 nM	3300	265 µM	0.8 µM	CCOC(=O)CCC(=O)N(C/C=C/c1cc(C(=N)N)ccc1O)c1ccc(OC2CCN(C(C)=N)CC2)c(C(F)(F)F)c1
18.5 nM	830 nM	480 nM	–	151 µM	21 µM	CC(=O)N1CCC(Oc2ccc(NC/C=C/c3cc(C(=N)N)ccc3O)cc2C(F)(F)F)CC1
0.07 nM	5 nM	1550 nM	–	–	–	CC(=N)N1CCC(Oc2ccc(NC/C(C)=C/c3cccc(C(=N)N)c3)cc2[N+](=O)[O-])CC1
0.88 nM	50 nM	2140 nM	–	220 µM	0.8 µM	CC(=N)N1CCC(Oc2ccc(NC/C=C/c3cccc(C(=N)N)c3)cc2C(F)(F)F)CC1
3 nM	891 nM	> 5500 nM	–	173 µM	3 µM	CC(=O)N1CCC(Oc2ccc(N(C/C=C/c3cc(C(=N)N)ccc3O)C(=O)CCC(=O)O)cc2C(F)(F)F)CC1
7.5 nM	80 nM	5000 nM	–	–	–	CC(=N)N1CCC(Oc2ccc(NC/C=C/c3cccc(C(=N)N)c3)cc2)CC1
0.28 nM	110 nM	5000 nM	–	540 µM	0.75 µM	CC(=N)N1CCC(Oc2ccc(N(C/C=C/c3cccc(C(=N)N)c3)C(=O)CCC(=O)O)cc2C(F)(F)F)CC1
0.1 nM	200 nM	1100 nM	2000	210 µM	1.05 µM	CC(=N)N1CCC(Oc2ccc(NC/C=C/c3cc(C(=N)N)ccc3O)cc2C(F)(F)F)CC1
0.56 nM	10 nM	3260 nM	–	200 µM	0.52 µM	CC(=N)N1CCC(Oc2ccc(N(C/C=C/c3cccc(C(=N)N)c3)C(=O)c3ccc(C(=O)O)c(C(=O)O)c3)cc2C(F)(F)F)CC1
0.34 nM	870 nM	> 5000 nM	–	–	–	N=C(N)c1ccc(O)c(/C=C/CN(C(=O)CCC(=O)O)c2ccc(OC3CCN(CC(=O)O)CC3)c(C(F)(F)F)c2)c1
0.58 nM	630 nM	1820 nM	–	156 µM	0.98 µM	CN1CCC(Oc2ccc(NC/C=C/c3cc(C(=N)N)ccc3O)cc2C(F)(F)F)CC1
0.1 nM	280 nM	5140 nM	2800	174 µM	0.54 µM	CC(=N)N1CCC(Oc2ccc(N(C/C=C/c3cc(C(=N)N)ccc3O)C(=O)CCC(=O)O)cc2C(F)(F)F)CC1
6.8 nM	40 nM	480 nM	–	15 µM	2.6 µM	CCOC(=O)c1cc(NC/C=C/c2cccc(C(=N)N)c2)ccc1OC1CCN(C(C)=N)CC1
4.1 nM	70 nM	4700 nM	–	240 µM	0.73 µM	CC(=N)N1CCC(Oc2ccc(NC/C=C/c3cccc(C(=N)N)c3)cc2F)CC1
44 nM	1250 nM	–	–	–	–	CS(=O)(=O)N1CCC(Oc2ccc(NC/C=C/c3cc(C(=N)N)ccc3O)cc2C(F)(F)F)CC1
0.08 nM	7 nM	1960 nM	–	–	–	CC(=N)N1CCC(Oc2ccc(NCc3ccc4ccc(C(=N)N)cc4c3)cc2[N+](=O)[O-])CC1
0.55 nM	76 nM	1000 nM	140	32 µM	0.87 µM	CCOC(=O)CCC(=O)N(C/C=C/c1cccc(C(=N)N)c1)c1ccc(OC2CCN(C(C)=N)CC2)c(C(F)(F)F)c1
0.3 nM	3 nM	5000 nM	–	–	–	CC(=N)N1CCC(Oc2ccc3c(nc(C)n3Cc3ccc4ccc(C(=N)N)cc4c3)c2[N+](=O)[O-])CC1
7.3 nM	520 nM	250 nM	–	–	–	N=C(N)c1ccc(O)c(/C=C/CNc2ccc(OC3CCN(C(N)=O)CC3)c(C(F)(F)F)c2)c1
